Laboratory results taken from patent publication US20250277029A1, “CANNABINOID TYPE 1 RECEPTOR BINDING PROTEINS AND USES THEREOF” (AMGEN INC., priority 2022, published 2025).

System: JAX WT DIO
Test: Rimonabant 3 mg/kg QD in JAX WT DIO mice (12 weeks HFD): body weight, fat mass, liver weight
Type: in vivo, mouse
Conditions: JAX WT DIO (12 weeks HFD), 3 mg/kg (6.5 μmol/kg, QD)

Cc1c(C(=O)NN2CCCCC2)nn(-c2ccc(Cl)cc2Cl)c1-c1ccc(Cl)cc1 [Rimonabant, rimonabant]
Fat Mass % Change (Day 15): −23% | Liver Weight % Change (Day) (Day 17): −7% | BW % Change (day 17): −12.9%
